The record followed here is PubChem BioAssay AID248 (DTP/NCI, 2004).

“And” between values parts separate entries of the source, which are not always exact repeats. Equal entries are not always repeated. Toxic doses and inconclusive results are not listed.

This assay has as its system L1210 leukemia ip in BDF1 mice, survival T/C. Description: NCI In Vivo Anticancer Drug Screen. Data for tumor model L1210 Leukemia (intraperitoneal) in B6D2F1 (BDF1) mice. The following applies: endpoint: mean survival time, higher = longer survival. The essentials:
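Transplanted-tumor mice were given test agent; controls received vehicle only. Survival readings from the two groups were divided (treated over control).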

The mark [1] stands for this setting: dose: 50.0 mg/kg/injection, schedule: Q01DX009 (ip), vehicle: acetone.
[2] abbreviates: dose: 100.0 mg/kg/injection, schedule: Q01DX009 (ip), vehicle: acetone.

On to `CN(C)N=Nc1n[nH]nc1C(N)=O`, for which the T/C runs as follows: (dose: 50.0 mg/kg/injection, schedule: Q01DX001 (ip), vehicle: saline) 102 % of control; (dose: 66.0 mg/kg/injection, schedule: Q01DX Z (ip), vehicle: carboxymethylcellulose (CMC)) 112 % of control; (dose: 100.0 mg/kg/injection, schedule: Q01DX001 (ip), vehicle: saline) 109 % of control and 118 % of control; (dose: 100.0 mg/kg/injection, schedule: Q01DX009 (ip), vehicle: saline) 113 % of control; (dose: 100.0 mg/kg/injection, schedule: Q01DX Z (ip), vehicle: carboxymethylcellulose (CMC)) 106 % of control; (dose: 100.0 mg/kg/injection, schedule: Q04DX003 (ip), vehicle: saline) 98 % of control. For the same compound, the T/C was 117 % of control (dose: 134.0 mg/kg/injection, schedule: Q01DX009 (ip), vehicle: saline); 116 % of control (dose: 168.0 mg/kg/injection, schedule: Q01DX Z (ip), vehicle: carboxymethylcellulose (CMC)); 107 % of control and 118 % of control (dose: 200.0 mg/kg/injection, schedule: Q01DX001 (ip), vehicle: saline); 120 % of control (dose: 200.0 mg/kg/injection, schedule: Q04DX003 (ip), vehicle: saline); 102 % of control (dose: 287.0 mg/kg/injection, schedule: Q04DX003 (ip), vehicle: saline); 103 % of control (dose: 287.5 mg/kg/injection, schedule: Q01DX001 (ip), vehicle: saline). Moreover, the T/C runs as follows: (dose: 400.0 mg/kg/injection, schedule: Q01DX001 (ip), vehicle: saline) 115 % of control; (dose: 400.0 mg/kg/injection, schedule: Q01DX009 (ip), vehicle: saline) 154 % of control; (dose: 400.0 mg/kg/injection, schedule: Q04DX003 (ip), vehicle: saline) 124 % of control; (dose: 575.0 mg/kg/injection, schedule: Q01DX001 (ip), vehicle: saline) 109 % of control; (dose: 575.0 mg/kg/injection, schedule: Q04DX003 (ip), vehicle: saline) 110 % of control; (dose: 1150.0 mg/kg/injection, schedule: Q01DX001 (ip), vehicle: saline) 117 % of control. The T/C (dose: 1150.0 mg/kg/injection, schedule: Q04DX003 (ip), vehicle: saline) is 112 % of control.
For `O=C(Nc1ccc(Cl)c(Cl)c1)SCCSC(=O)Nc1ccc(Cl)c(Cl)c1`, the T/C runs as follows: (dose: 100.0 mg/kg/injection, schedule: Q01DX001 (ip), vehicle: saline with Tween-80) 107 % of control; (dose: 200.0 mg/kg/injection, schedule: Q01DX001 (ip), vehicle: saline with Tween-80) 92 % of control; (dose: 400.0 mg/kg/injection, schedule: Q01DX001 (ip), vehicle: saline with Tween-80) 93 % of control.
Regarding `O=C(OCCl)c1ccc(Cl)cc1Cl`, the T/C by setting is: (dose: 100.0 mg/kg/injection, schedule: Q04DX003 (ip), vehicle: saline with Tween-80) 87 % of control; (dose: 400.0 mg/kg/injection, schedule: Q04DX003 (ip), vehicle: saline with Tween-80) 88 % of control.
`O=[N+]([O-])c1ccc(O)c(Br)c1`: the T/C (dose: 6.25 mg/kg/injection, schedule: Q01DX009 (ip), vehicle: saline with Tween-80) is 95 % of control; the T/C (dose: 12.5 mg/kg/injection, schedule: Q01DX009 (ip), vehicle: saline with Tween-80) is 101 % of control; the T/C (dose: 25.0 mg/kg/injection, schedule: Q01DX009 (ip), vehicle: carboxymethylcellulose (CMC)) is 90 % of control; the T/C (dose: 25.0 mg/kg/injection, schedule: Q01DX009 (ip), vehicle: saline with Tween-80) is 93 % of control.
For the compound `NC(N)=NCCCC(N)C(=O)NCCCCCCNCCCCCCNC(=O)C(N)CCCN=C(N)N` (stereo not drawn), the T/C (dose: 1.25 mg/kg/injection, schedule: Q01DX Z (ip), vehicle: saline) is 96 % of control; the T/C (dose: 2.5 mg/kg/injection, schedule: Q01DX Z (ip), vehicle: saline) is 94 % of control; the T/C (dose: 5.0 mg/kg/injection, schedule: Q01DX Z (ip), vehicle: saline) was 98 % of control; the T/C (dose: 10.0 mg/kg/injection, schedule: Q01DX Z (ip), vehicle: saline) was 96 % of control.
`COC1(OC)C2CCC1C1OC12` (stereo not drawn): the T/C was 107 % of control (dose: 100.0 mg/kg/injection, schedule: Q04DX002 (ip), vehicle: saline); 97 % of control (dose: 200.0 mg/kg/injection, schedule: Q04DX002 (ip), vehicle: saline); 97 % of control (dose: 400.0 mg/kg/injection, schedule: Q04DX002 (ip), vehicle: saline).
For `CCOC(=O)C1(C(=O)OCC)COC(=O)C1`, the T/C is, setting by setting: under setting [1], 94 % of control; under setting [2], 97 % of control; (dose: 100.0 mg/kg/injection, schedule: Q04DX003 (ip), vehicle: acetone) 107 % of control; (dose: 200.0 mg/kg/injection, schedule: Q01DX009 (ip), vehicle: acetone) 100 % of control; (dose: 200.0 mg/kg/injection, schedule: Q04DX003 (ip), vehicle: acetone) 96 % of control; (dose: 400.0 mg/kg/injection, schedule: Q04DX003 (ip), vehicle: acetone) 98 % of control.
As to `COc1cc2c(c3c1c(=O)c1ccccc1n3C)C=CC(C)(C)O2`, the T/C reads like this: (dose: 6.0 mg/kg/injection, schedule: Q01DX001 (ip), vehicle: acetone) 101 % of control; (dose: 7.5 mg/kg/injection, schedule: Q01DX Z (ip), vehicle: other) 106 % of control; (dose: 12.0 mg/kg/injection, schedule: Q01DX001 (ip), vehicle: acetone) 97 % of control; (dose: 15.0 mg/kg/injection, schedule: Q01DX001 (ip), vehicle: other) 97 % of control; (dose: 15.0 mg/kg/injection, schedule: Q01DX Z (ip), vehicle: other) 114 % of control; (dose: 25.0 mg/kg/injection, schedule: Q01DX001 (ip), vehicle: acetone) 105 % of control. Besides, the T/C by setting is: (dose: 30.0 mg/kg/injection, schedule: Q01DX001 (ip), vehicle: other) 94 % of control; (dose: 30.0 mg/kg/injection, schedule: Q01DX Z (ip), vehicle: other) 122 % of control; (dose: 50.0 mg/kg/injection, schedule: Q01DX001 (ip), vehicle: acetone) 118 % of control; under setting [1], 103 % of control; (dose: 60.0 mg/kg/injection, schedule: Q01DX001 (ip), vehicle: other) 105 % of control; (dose: 60.0 mg/kg/injection, schedule: Q01DX Z (ip), vehicle: other) 103 % of control. Further, the T/C is 114 % of control (dose: 100.0 mg/kg/injection, schedule: Q01DX001 (ip), vehicle: acetone); 91 % of control under setting [2]; 105 % of control (dose: 120.0 mg/kg/injection, schedule: Q01DX001 (ip), vehicle: other); 116 % of control (dose: 400.0 mg/kg/injection, schedule: Q01DX001 (ip), vehicle: acetone).
Regarding `CN(N)C(=O)Nc1ccccc1Cl`, the T/C (dose: 75.0 mg/kg/injection, schedule: Q01DX001 (ip), vehicle: carboxymethylcellulose (CMC)) is 100 % of control and the T/C (dose: 150.0 mg/kg/injection, schedule: Q01DX001 (ip), vehicle: carboxymethylcellulose (CMC)) is 107 % of control.
On to `S=C1NC2(CCCCC2)NC12CCCCC2`, for which the T/C is 97 % of control (dose: 100.0 mg/kg/injection, schedule: Q01DX009 (ip), vehicle: Klucel (hydroxypropylcellulose) (HPC)); 101 % of control (dose: 100.0 mg/kg/injection, schedule: Q04DX003 (ip), vehicle: Klucel (hydroxypropylcellulose) (HPC)); 98 % of control (dose: 200.0 mg/kg/injection, schedule: Q01DX009 (ip), vehicle: Klucel (hydroxypropylcellulose) (HPC)); 103 % of control (dose: 200.0 mg/kg/injection, schedule: Q04DX003 (ip), vehicle: Klucel (hydroxypropylcellulose) (HPC)); 93 % of control (dose: 400.0 mg/kg/injection, schedule: Q01DX009 (ip), vehicle: Klucel (hydroxypropylcellulose) (HPC)); 101 % of control (dose: 400.0 mg/kg/injection, schedule: Q04DX003 (ip), vehicle: Klucel (hydroxypropylcellulose) (HPC)).
As for `CCCCC#CC(=O)OC`, the T/C is, setting by setting: (dose: 75.0 mg/kg/injection, schedule: Q01DX001 (ip), vehicle: other) 106 % of control; (dose: 150.0 mg/kg/injection, schedule: Q01DX001 (ip), vehicle: other) 97 % of control; (dose: 300.0 mg/kg/injection, schedule: Q01DX001 (ip), vehicle: other) 101 % of control.
